Test results from patent publication US9796719B2, “Compounds and pharmaceutical compositions thereof for the treatment of inflammatory disorders” (GALAPAGOS NV, priority 2013, dated 2017).

What was measured:
hENPP2 [1] = biological target: T1, hENPP2 (UniProtKB/SwissProt Sequence ref Q13822) (Homo sapiens (Human), UniProt Q13822); test: LPC hENPP2 assay (choline release, LPC as substrate); assay type: biochemical
How it was run: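 Choline released from LPC by ENPP2 is quantified after stopping with stop-developer containing 0.6 U/mL choline oxidase, 0.6 U/mL peroxidase, 1.8 mM TOOS, 1.2 mM amino-antipyrine and 20 mM EGTA. Quinoneimine dye read at 555 nm after 30 min at room temperature.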

hENPP2 [2] = biological target: T1, hENPP2; test: FS3 hENPP2 assay (fluorogenic substrate FS-3); assay type: biochemical; conditions: hENPP2, FS-3 as substrate
Procedure: Compound IC50 values are determined in a fluorescent hENPP2 (UniProtKB/SwissProt Sequence ref Q13822) biochemical assay using the fluorogenic autotaxin substrate FS-3 as substrate. FS-3 is a doubly labeled analog of LPC wherein the fluorophore is quenched through intramolecular energy transfer. Without hENPP2, the emission of the probe is quenched. If the substrate is hydrolyzed by hENPP2, the emission of the probe is not quenched anymore resulting in a fluorescence increase. Inhibition of hENPP2 by compounds will result in a decrease of the signal.
10 μL of a dilution series of compound, starting from 20 μM highest concentration, ⅕ dilution, is added to the wells. hENPP2 is used at a final concentration of 0.4 μg/mL or 0.64 μg/mL (it will be appreciated by the skilled person that the potency read out is independent of the enzyme concentration). The enzyme is diluted in 50 mM Tris-HCl pH 8.0, 250 mM NaCl, 5 mM KCl, 1 mM MgCl2, 1 mM CaCl2, 0.1% fatty acid free BSA in a total volume of 20 μL. Enzyme mixture is added to compounds and the resulting mixture is incubated for 30 min at room temperature under shaking. The reaction is started by the addition of 20 μL of 0.75 μM FS-3 diluted in the same buffer as described above and the mixture is incubated at 30° C. for 30 min. Fluorescence is read on the Envision (Excitation 485 nm, emission 520 nm).

Structure (SMILES)	IC50 (hENPP2 [1]) [nM]	IC50 (hENPP2 [2]) [nM]
CCc1nc2ccc(N3CCC(O)C3)nn2c1N(C)c1nc(-c2ccc(F)cc2)c(C#N)s1 (centres unmarked) [Cpd 171, 2-((2-ethyl-6-(3-hydroxypyrrolidin-1-yl)imidazo[1,2-b]pyridazin-3-yl)(methyl)amino)-4-(4-fluorophenyl) thiazole-5-carbonitrile]	100 to 500	0.01 to 25
CCc1nc2ccc(N3CCC(C(=O)NCCO)CC3)nn2c1N(C)c1nc(-c2ccc(F)cc2)cs1 [Compound 97, 1-(2-ethyl-3-((4-(4-fluorophenyl)thiazol-2-yl)(methyl)amino)imidazo[1,2-b]pyridazin-6-yl)-N-(2-hydroxyethyl)piperidine-4-carboxamide]	500 to 1000	0.01 to 25
CN(c1nc(-c2ccc(F)cc2)cs1)c1c(CC#N)nc2ccc(C3=CCN(S(C)(=O)=O)CC3)nn12 [Compound 196, 2-(3-((4-(4-fluorophenyl)thiazol-2-yl)(methyl)amino)-6-(1-(methylsulfonyl)-1,2,3,6-tetrahydropyridin-4-yl)imidazo[1,2-b]pyridazin-2-yl)acetonitrile]	> 1000	0.01 to 25
CCc1nc2ccc(N3CCC(N)CC3)nn2c1N(C)c1nc(-c2ccc(F)cc2)cs1 [Cpd 82, N-(6-(4-aminopiperidin-1-yl)-2-ethylimidazo[1,2-b]pyridazin-3-yl)-4-(4-fluorophenyl)-N-methylthiazol-2-amine]	> 1000	0.01 to 25
CCc1nc2ccc(C3CCN(CC(=O)N4CC(O)C4)CC3)nn2c1N(C)c1nc(-c2ccc(F)cc2)c(C#N)s1 [Cpd 212, 2-((2-ethyl-6-(1-(2-(3-hydroxyazetidin-1-yl)-2-oxoethyl)piperidin-4-yl)imidazo[1,2-b]pyridazin-3-yl)(methyl)amino)-4-(4-fluorophenyl) thiazole-5-carbonitrile]	0.01 to 100	0.01 to 25
CCc1nc2ccc(N3CCN(CC4CCCO4)CC3)nn2c1N(C)c1nc(-c2ccc(F)cc2)cs1 (centres unmarked) [Cpd 48, N-(2-ethyl-6-(4-((tetrahydrofuran-2-yl)methyl)piperazin-1-yl)imidazo[1,2-b]pyridazin-3-yl)-4-(4-fluorophenyl)-N-methylthiazol-2-amine]	100 to 500	0.01 to 25
CCc1nc2ccc(N3CCN(CC(=O)N4CC(O)C4)CC3)nn2c1N(C)c1nc(-c2ccc(F)cc2)cs1 [Cpd 26]	100 to 500	0.01 to 25
CCc1nc2ccc(C3CCN(CC(=O)N(C)C)CC3)nn2c1N(C)c1nc(-c2ccc(F)cc2)cs1 [Cpd 202, 2-(4-(2-ethyl-3-((4-(4-fluorophenyl)thiazol-2-yl)(methyl)amino)imidazo[1,2-b]pyridazin-6-yl)piperidin-1-yl)-N,N-dimethylacetamide]	500 to 1000	0.01 to 25
CCc1nc2ccc(N3CCC(N4CCOCC4)CC3)nn2c1N(C)c1nc(-c2ccc(F)cc2)cs1 [Cpd 109, N-(2-ethyl-6-(4-morpholino-piperidin-1-yl)imidazo[1,2-b]pyridazin-3-yl)-4-(4-fluorophenyl)-N-methylthiazol-2-amine]	500 to 1000	0.01 to 25
CN(c1nc(-c2ccc(F)cc2)cs1)c1c(CO)nc2ccc(C3=CCN(S(C)(=O)=O)CC3)nn12 [Compound 195, (3-((4-(4-fluorophenyl)thiazol-2-yl)(methyl)amino)-6-(1-(methylsulfonyl)-1,2,3,6-tetrahydropyridin-4-yl)imidazo[1,2-b]pyridazin-2-yl)methanol]	> 1000	0.01 to 25
CCc1nc2ccc(N3CCC(NC(=O)OC(C)(C)C)C3)nn2c1N(C)c1nc(-c2ccc(F)cc2)cs1 (centres unmarked) [Cpd 133, tert-butyl 1-(2-ethyl-3-((4-(4-fluorophenyl)thiazol-2-yl)(methyl)amino)imidazo[1,2-b]pyridazin-6-yl)pyrrolidin-3-ylcarbamate]	> 1000	0.01 to 25

Continued, values first:

IC50 (hENPP2 [1]) [nM]	IC50 (hENPP2 [2]) [nM]	Structure (SMILES)
> 1000	0.01 to 25	CCc1nc2ccc(N3CC4CN(S(=O)(=O)CCCN5CCOCC5)CC4C3)nn2c1N(C)c1nc(-c2ccc(F)cc2)cs1 (centres unmarked) [Compound 127, N-(2-ethyl-6-(5-(3-morpholinopropylsulfonyl)hexahydropyrrolo[3,4-c]pyrrol-2(1H)-yl)imidazo[1,2-b]pyridazin-3-yl)-4-(4-fluorophenyl)-N-methylthiazol-2-amine]
100 to 500	0.01 to 25	CCc1nc2ccc(N3CCC(N4CCOCC4)C3)nn2c1N(C)c1nc(-c2ccc(F)cc2)cs1 (centres unmarked) [Cpd 147, N-(2-ethyl-6-(3-morpholino-pyrrolidin-1-yl)imidazo[1,2-b]pyridazin-3-yl)-4-(4-fluorophenyl)-N-methylthiazol-2-amine]
> 1000	0.01 to 25	CN(c1nc(-c2ccc(F)cc2)c(C(=O)C(F)(F)F)s1)c1c(CCC#N)nc2ccc(C3CCN(S(C)(=O)=O)CC3)nn12 [Compound 199, 3-(3-((4-(4-fluorophenyl)-5-(2,2,2-trifluoroacetoyl)thiazol-2-yl)(methyl)amino)-6-(1-(methylsulfonyl)piperidin-4-yl)imidazo[1,2-b]pyridazin-2-yl)propanenitrile]
> 1000	0.01 to 25	CCc1nc2ccc(N3CCC(N4CCCCC4)C3)nn2c1N(C)c1nc(-c2ccc(F)cc2)cs1 (centres unmarked) [Cpd 151, N-(2-ethyl-6-(3-(piperidin-1-yl)pyrrolidin-1-yl)imidazo[1,2-b]pyridazin-3-yl)-4-(4-fluorophenyl)-N-methylthiazol-2-amine]
> 1000	0.01 to 25	CCc1nc2ccc(N3CCN(S(=O)(=O)CC)CC3)nn2c1N(C)c1nc(-c2ccc(F)cc2)cs1 [Cpd 71, N-(2-ethyl-6-(4-(ethylsulfonyl)piperazin-1-yl)imidazo[1,2-b]pyridazin-3-yl)-4-(4-fluorophenyl)-N-methylthiazol-2-amine]
> 1000	0.01 to 25	CCc1nc2ccc(N3CCC(NS(C)(=O)=O)CC3)nn2c1N(C)c1nc(-c2ccc(F)cc2)cs1 [Cpd 83, N-(1-(2-ethyl-3-((4-(4-fluorophenyl)thiazol-2-yl)(methyl)amino)imidazo[1,2-b]pyridazin-6-yl)piperidin-4-yl)methane-sulfonamide]
100 to 500	0.01 to 25	CCc1nc2ccc(N3CCC(=O)C3)nn2c1N(C)c1nc(-c2ccc(F)cc2)c(C#N)s1 [Compound 172, 2-((2-ethyl-6-(3-oxopyrrolidin-1-yl)imidazo[1,2-b]pyridazin-3-yl)(methyl)amino)-4-(4-fluorophenyl)thiazole-5-carbonitrile]
> 1000	0.01 to 25	CCOC(=O)C1CCN(c2ccc3nc(CC)c(N(C)c4nc(-c5ccc(F)cc5)cs4)n3n2)CC1 [Compound 95, ethyl 1-(2-ethyl-3-((4-(4-fluorophenyl)thiazol-2-yl)(methyl)amino)imidazo[1,2-b]pyridazin-6-yl)piperidine-4-carboxylate]
> 1000	0.01 to 25	CCc1nc2ccc(N3CCC(NS(C)(=O)=O)C3)nn2c1N(C)c1nc(-c2ccc(F)cc2)cs1 (centres unmarked) [Cpd 137, N-(1-(2-ethyl-3-((4-(4-fluorophenyl)thiazol-2-yl)(methyl)amino)imidazo[1,2-b]pyridazin-6-yl)pyrrolidin-3-yl)methane-sulfonamide]
100 to 500	0.01 to 25	CCc1nc2ccc(N3CCN(CC(=O)N4CCCC4CO)CC3)nn2c1N(C)c1nc(-c2ccc(F)cc2)cs1 (centres unmarked) [Cpd 29]
> 1000	0.01 to 25	CCc1nc2ccc(N3CCC(C(N)=O)CC3)nn2c1N(C)c1nc(-c2ccc(F)cc2)cs1 [Cpd 98, 1-(2-ethyl-3-((4-(4-fluorophenyl)thiazol-2-yl)(methyl)amino)imidazo[1,2-b]pyridazin-6-yl)piperidine-4-carboxamide]
100 to 500	0.01 to 25	CCc1nc2cnc(N3CCN(CC(=O)N4CCC4)CC3)cn2c1N(C)c1nc(-c2ccc(F)cc2)c(C#N)s1 [Cpd 4, 2-((6-(4-(2-(azetidin-1-yl)-2-oxoethyl)piperazin-1-yl)-2-ethylimidazo[1,2-a]pyrazin-3-yl)(methyl)amino)-4-(4-fluorophenyl) thiazole-5-carbonitrile]
500 to 1000	0.01 to 25	CCc1nc2ccc(C3CCN(CC(=O)N4CC(O)C4)CC3)nn2c1N(C)c1cccc(-c2ccc(F)cc2)n1 [Cpd 214, 2-(4-(2-ethyl-3-((6-(4-fluorophenyl)pyridin-2-yl)(methyl)amino)imidazo[1,2-b]pyridazin-6-yl)piperidin-1-yl)-1-(3-hydroxyazetidin-1-yl)ethanone]
> 1000	0.01 to 25	CCc1nc2ccc(N3CCN(C(=O)C4CCCO4)CC3)nn2c1N(C)c1nc(-c2ccc(F)cc2)cs1 (stereo not drawn) [Cpd 47, (4-(2-ethyl-3-((4-(4-fluorophenyl)thiazol-2-yl)(methyl)amino)imidazo[1,2-b]pyridazin-6-yl)piperazin-l-yl)(tetrahydrofuran-2-yl)methanone]
